Source: BindingDB's records for doi:10.1046/j.1471-4159.2000.0750413.x (Oregon State University, 2000)

biological target: Cannabinoid receptor 1 (Taricha granulosa, UniProt Q9PUI7)
Sequence (Q9PUI7 whole entry): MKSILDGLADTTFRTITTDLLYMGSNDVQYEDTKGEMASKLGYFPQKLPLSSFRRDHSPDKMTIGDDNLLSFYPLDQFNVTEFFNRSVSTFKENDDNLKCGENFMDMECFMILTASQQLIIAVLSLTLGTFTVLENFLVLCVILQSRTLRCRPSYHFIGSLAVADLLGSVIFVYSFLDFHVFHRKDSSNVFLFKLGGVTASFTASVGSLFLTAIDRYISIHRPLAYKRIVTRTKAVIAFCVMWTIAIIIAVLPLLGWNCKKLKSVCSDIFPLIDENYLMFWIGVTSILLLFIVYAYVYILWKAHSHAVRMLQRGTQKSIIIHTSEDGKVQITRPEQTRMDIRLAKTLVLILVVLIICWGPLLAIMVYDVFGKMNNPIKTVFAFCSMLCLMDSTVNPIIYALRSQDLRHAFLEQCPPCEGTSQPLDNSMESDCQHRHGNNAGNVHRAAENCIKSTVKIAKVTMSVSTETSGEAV

Structure (SMILES) | Ki
CCCCC/C=C\C/C=C\C/C=C\C/C=C\CCCCCC(=O)NCCO | 2400 nM
CCCCCCC(C)(C)c1ccc([C@H]2C[C@@H](O)CC[C@@H]2CCCO)c(O)c1 [CP-56667 [(+)-AC],XV] | 3.8 nM
CC(=O)Oc1cc(OC(C)CCCc2ccccc2)cc2c1C1CC(O)CCC1C(C)N2 (centres undefined) [NSC_107822] | 13 nM
Cc1c(C(=O)c2cccc3ccccc23)c2cccc3c2n1[C@H](CN1CCOCC1)CO3 [WIN55212-2] | 25.7 nM
